Assays:
Assay type in all cases: functional
Details in all cases: read-out: IZ
[1] = test system: Bacillus cereus; experiment: Antibacterial activity against Bacillus cereus at 30000 ppm after 24 hrs by agar diffusion method
[2] = test system: Bacillus cereus; experiment: Antibacterial activity against Bacillus cereus at 50000 ppm after 24 hrs by agar diffusion method
[3] = test system: Bacillus subtilis; experiment: Antibacterial activity against Bacillus subtilis at 10000 ppm after 24 hrs by agar diffusion method
[4] = test system: Bacillus subtilis; experiment: Antibacterial activity against Bacillus subtilis at 30000 ppm after 24 hrs by agar diffusion method
[5] = test system: Bacillus subtilis; experiment: Antibacterial activity against Bacillus subtilis at 50000 ppm after 24 hrs by agar diffusion method
[6] = test system: Escherichia coli; experiment: Antibacterial activity against Escherichia coli at 10000 ppm after 24 hrs by agar diffusion method
[7] = test system: Escherichia coli; experiment: Antibacterial activity against Escherichia coli at 30000 ppm after 24 hrs by agar diffusion method
[8] = test system: Escherichia coli; experiment: Antibacterial activity against Escherichia coli at 50000 ppm after 24 hrs by agar diffusion method
[9] = test system: Micrococcus luteus; experiment: Antibacterial activity against Micrococcus luteus at 10000 ppm after 24 hrs by agar diffusion method
[10] = test system: Micrococcus luteus; experiment: Antibacterial activity against Micrococcus luteus at 30000 ppm after 24 hrs by agar diffusion method
[11] = test system: Micrococcus luteus; experiment: Antibacterial activity against Micrococcus luteus at 50000 ppm after 24 hrs by agar diffusion method
[12] = test system: Staphylococcus aureus; experiment: Antibacterial activity against Staphylococcus aureus at 50000 ppm after 24 hrs by agar diffusion method
[13] = test system: Pseudomonas aeruginosa; experiment: Antibacterial activity against Pseudomonas aeruginosa at 30000 ppm after 24 hrs by agar diffusion method
[14] = test system: Pseudomonas aeruginosa; experiment: Antibacterial activity against Pseudomonas aeruginosa at 50000 ppm after 24 hrs by agar diffusion method
[15] = test system: Kocuria rosea; experiment: Antibacterial activity against Micrococcus roseus at 50000 ppm after 24 hrs by agar diffusion method
[16] = test system: Staphylococcus aureus; experiment: Antibacterial activity against Staphylococcus aureus at 30000 ppm after 24 hrs by agar diffusion method
[17] = test system: Kocuria rosea; experiment: Antibacterial activity against Micrococcus roseus at 30000 ppm after 24 hrs by agar diffusion method
[18] = test system: Bacillus cereus; experiment: Antibacterial activity against Bacillus cereus at 10000 ppm after 24 hrs by agar diffusion method
[19] = test system: Pseudomonas aeruginosa; experiment: Antibacterial activity against Pseudomonas aeruginosa at 10000 ppm after 24 hrs by agar diffusion method
[20] = test system: Kocuria rosea; experiment: Antibacterial activity against Micrococcus roseus at 10000 ppm after 24 hrs by agar diffusion method
[21] = test system: Staphylococcus aureus; experiment: Antibacterial activity against Staphylococcus aureus at 10000 ppm after 24 hrs by agar diffusion method

Structure (SMILES) | zone of inhibition at 30000 ppm [1] [mm] | zone of inhibition at 50000 ppm [2] [mm] | zone of inhibition at 10000 ppm [3] [mm] | zone of inhibition at 30000 ppm [4] [mm] | zone of inhibition at 50000 ppm [5] [mm] | zone of inhibition at 10000 ppm [6] [mm] | zone of inhibition at 30000 ppm [7] [mm] | zone of inhibition at 50000 ppm [8] [mm] | zone of inhibition at 10000 ppm [9] [mm] | zone of inhibition at 30000 ppm [10] [mm] | zone of inhibition at 50000 ppm [11] [mm] | zone of inhibition at 50000 ppm [12] [mm] | zone of inhibition at 30000 ppm [13] [mm] | zone of inhibition at 50000 ppm [14] [mm] | zone of inhibition at 50000 ppm [15] [mm] | zone of inhibition at 30000 ppm [16] [mm] | zone of inhibition at 30000 ppm [17] [mm] | zone of inhibition at 10000 ppm [18] [mm] | zone of inhibition at 10000 ppm [19] [mm] | zone of inhibition at 10000 ppm [20] [mm] | also measured
NC1=NC2(CCCCC2)n2c(nc3ccccc32)N1 | 4 | 9 | 7 | 11 | 13 | 12 | 15 | 18 | 7 | 7 | 12 | 5 | 4 | 5 | 5 | – | – | – | – | – | –
NC1=NC2(CCCC2)n2c(nc3ccccc32)N1 | 5 | 9 | 9 | 12 | 15 | 12 | 17 | 20 | 7 | 7 | 12 | 6 | – | 5 | 8 | 4 | 3 | – | – | – | –
c1ccc(-c2c[nH]/c(=N/c3nc4ccccc4[nH]3)[nH]2)cc1 | 8 | 9 | 9 | 11 | 14 | 4 | 6 | 8 | – | – | 3 | 9 | 6 | 11 | 10 | 5 | 8 | 6 | 4 | 3 | –
Clc1c[nH]/c(=N/c2nc3ccccc3[nH]2)[nH]1 | – | 6 | 6 | 10 | 14 | 9 | 13 | 18 | – | – | 4 | 9 | – | 2 | 8 | 5 | 3 | – | – | – | –
Cc1c[nH]/c(=N/c2nc3ccccc3[nH]2)[nH]1 | 9 | 12 | 10 | 13 | 15 | 1 | 4 | 8 | 6 | 7 | 8 | 6 | 4 | 7 | 9 | 3 | 7 | 6 | – | 5 | –
Oc1c[nH]/c(=N/c2nc3ccccc3[nH]2)[nH]1 | 5 | 10 | – | – | 7 | 6 | 8 | 13 | – | 5 | 9 | 13 | 8 | 11 | 8 | 7 | 6 | – | 5 | – | zone of inhibition at 10000 ppm [21]: 2 mm
